Reference: PMC2694832, “Pharmacokinetics, tissue distribution and mass balance of radiolabeled dihydroartemisinin in male rats” (Malaria Journal, 2009)
Read-outs that look alike come from different tables or passages of the source.

Assays:
[1] = rats; cited from earlier work
rat plasma proteins = assay: Protein binding of [^14C] DHA, equilibrium dialysis, rat plasma; assay type: in vitro ADME
Experimental: (§1) Human blood samples (five men and five women) were freshly obtained from subject volunteers at the Department of Clinical Trials, WRAIR. Rat samples were freshly collected from five male and five female rats. Equilibrium dialysis was performed using Teflon dialysis chambers and Diachema standard membranes as described by Li and Hümpel. The GD-4/90 Equilibrium Dialyzer (MM Developments, Ottawa) contained 20 micro-dialysis cells (2.0 ml/chamber). The molecular weight cutoff for dialysis membranes was 5000 D. Equilibrium was reached after four hours, when cells were rotated at 16 rpm and 37°C. Drugs were dissolved in plasma samples with various concentrations (0.15 – 57800 ng/ml) and all experiments were carried out for five hours.

[2] = Pharmacokinetic study of [^14C] DHA and unchanged DHA, single i.v. dose; assay type: in vivo, rats
Experimental: Traditional PK studies involve intermittent blood sampling and subsequent determination of drug concentrations in whole blood and plasma. The Culex automated blood sampler provides a way for blood withdrawal at preprogrammed intervals, which is more accurate and less labor intensive. Six rats in the PK group were implanted with a jugular vein catheter under an isofluorane anesthaesia. After the surgery, rats were allowed to recover for 96 hours with free access to food and water. The rats were dosed single i.v. at 3 mg/ml/kg with [^14C] DHA (20 μCi/kg), which was prepared as a 25% cremophore/0.9% saline solution, through the tail vein. […] PK evaluation of [^14C] DHA in plasma and whole blood, as well as unchanged DHA in plasma was conducted in individual rats.
Total radioactivity in the collected tissue samples were quantified in duplicate. Weighed tissue aliquots (~0.2 g) were digested overnight in 2 ml of Solvable® tissue solubilizer (Perkin-Elmer Life and Analytical Sciences, Boston, MA) at 50°C. Coloured samples were decolourized by adding a maximum of 0.2 ml of 30% H2O2 for 30–60 minutes. Scintillation cocktail (Hyonic Fluor; Perkin-Elmer Boston. Massachusetts, USA) was then added and radioactivity determined in a Perkin-Elmer Tri-Carb 3100 TR scintillation spectrophotometer (Packard Instrument Co., Downers Grove, Illinois, USA). Faeces and intestinal contents were thoroughly homogenized before taking aliquots. Plasma was also analysed using the HPLC-ECD system to measure the concentration of unchanged DHA, as described by Li et al.
The analysis of cold DHA in plasma was performed according to a previously described HPLC method with the following modifications: for simultaneous determination of artemisinin and DHA (artemisinin as an internal standard), the Agilent Eclipse XDB-C18 column 5 μm (4.6 × 150 mm) was used with an isocratic mobile phase consisting of 40% acetonitrile: 60% ESA Acid Metabolite A (70–4835) in the reductive mode (-400 mV) for the quantification of DHA. Validation and reproducibility were evaluated and a lower limit of quantitation (LLQ) of 2.31 ng/ml for DHA was determined. The inter- and intra-day coefficient of variation for accuracy and precision were all within ± 10%.
For pharmacokinetics, the concentration-time data of [^14C] DHA in plasma and whole blood collected during the 192 hour treatment period was fitted to a three-compartment open model using a nonlinear, extended least-square fitting procedure (WinNonlin 5.2, Pharsight Corporation, Cary, NC) using weighted (1/concentration) nonlinear regression. The area under the curve (AUC) was determined by the linear trapezoidal rule with extrapolation to infinity based on the concentration of the last time point divided by the terminal rate constant. Extrapolations to time zero were done using zero concentration for intravenous dosing and using C0 values determined from the three-compartment model equation at time zero by i.v. route. Mean clearance rate (CL) was determined by dividing the dose by the AUCinf for i.v. injection. Mean residence time (MRT) was determined by dividing the area under the first moment curve (AUMC) by the AUC. The volume of distribution at steady state (Vss) was calculated as the product of CL and MRT. The concentration-time data of unchanged DHA was fitted to a two-compartment open model. Statistical analysis was conducted with Microsoft Excel using a Student's t-test for dependent samples to compare means of paired and unpaired samples between two groups.

[3] = Mass balance and urinary/faecal elimination of [^14C] DHA; assay type: in vivo, rats; conditions: rats i.v.
Experimental: Metabolic cages were washed with a solution of 2% Count-off® (Perkin-Elmer Life and Analytical Sciences, Boston, Massachusetts, USA) and the volume was measured. Duplicate portions (0.1 ml urine; 1 ml cage rinse) of each sample were radio-assayed after the addition of scintillation cocktail. The weights of individual faecal samples were obtained and the samples were subsequently homogenized in four volumes of de-ionized water. Quadruplicate portions (1.0 ml) of each homogenate were decolourized with 30% hydrogen peroxide, and digested with Solvable® tissue solubilizer. After acidification with glacial acetic acid and addition of scintillation cocktail, samples were assayed for radioactivity. The samples were kept in at -20°C for two weeks prior to analysis.

human plasma proteins = assay: Protein binding of [^14C] DHA, equilibrium dialysis, human plasma; assay type: in vitro ADME; conditions: both sexes; undiluted human plasma, 0.15 to 57800 ng/ml, 37°C, five hours; read-out: plasma protein binding percentage
Experimental: as §1

[4] = unchanged DHA in plasma, rats single i.v. 3 mg/kg

## C[C@H]1[C@H](OC(=O)CCC(=O)O)O[C@@H]2O[C@@]3(C)CC[C@H]4[C@H](C)CC[C@@H]1[C@@]24OO3 [Artesunate]
[1]
  plasma half-life of unchanged AS, first phase: 8.4 min

## C[C@H]1[C@@H](O)O[C@@H]2O[C@@]3(C)CC[C@H]4[C@H](C)CC[C@@H]1[C@@]24OO3 [DHA, 10'dihydro-artemisinin]
Rat plasma proteins; both sexes, undiluted rat plasma, 0.15 to 57800 ng/ml, 37°C, five hours, read-out: plasma protein binding percentage
  fraction unbound at 5 h: 0.18 to 0.24
Rat plasma proteins; rat plasma
  dependence of binding capacity on drug concentration: not significantly different
[2]; rat, iv, unchanged DHA in plasma, two-compartment, rats single i.v. 3 mg/kg
  AUC(0-inf): 933 ± 125 ng·h/mL
[2]; rat, iv, unchanged DHA in plasma, two-compartment, rats single i.v. 3 mg/kg, read-out: MRT
  MRT: 29.4 ± 7.2 min
[2]; rat, iv, unchanged DHA in plasma, two-compartment, rats single i.v. 3 mg/kg, read-out: Vss
  Vd: 1.66 ± 0.54 L/kg
[2]; rat, iv, unchanged DHA in plasma, rats i.v. 3 mg/kg
  AUC: 933 ng·h/mL
[2]; rat, iv, unchanged DHA in plasma, rats single i.v. 3 mg/kg, read-out: Tmax
  Tmax: 1.2 min
[2]; rat, plasma, iv, 3 mg/kg, unchanged DHA in plasma, two-compartment, rats single i.v. 3 mg/kg
  clearance: 55.8 mL/min/kg
[2]; rat, plasma, iv, 3 mg/kg, unchanged DHA in plasma, two-compartment, rats single i.v. 3 mg/kg, read-out: Cmax
  Cmax: 2000 ± 507 ng/mL
[2]; rat, plasma, iv, 3 mg/kg, unchanged DHA in plasma, two-compartment, rats single i.v. 3 mg/kg, read-out: t1/2 – alpha (converted)
  half-life: 15 ± 2.4 min
[2]; rat, plasma, iv, 3 mg/kg, unchanged DHA in plasma, two-compartment, rats single i.v. 3 mg/kg, read-out: t1/2 – beta (terminal) (converted)
  half-life: 61.8 ± 11.4 min
[2]; rat, plasma, iv, 3 mg/kg, unchanged DHA in plasma, rats single i.v. 3 mg/kg, read-out: Cmax at first peak
  Cmax: 2000 ± 507 ng/mL
[2]; rat, plasma, iv, 3 mg/kg, unchanged DHA in plasma, rats single i.v. 3 mg/kg, read-out: Cmax at second peak
  Cmax: 1640 ± 468 ng/mL
[2]; rats, plasma, urine and faeces, single i.v. 3 mg/20 μCi/kg
  duration of total radioactivity (long-lasting metabolites): > 192 h
[2]; rats, single i.v. 3 mg/kg
  time to complete elimination of unchanged DHA: ≤ 6 h
[2]; unchanged DHA in plasma, two-compartment, rats single i.v. 3 mg/kg, 3 mg/kg
  CL: 55.8337 ± 7.0562 mL/min/kg
[2]; unchanged DHA in plasma, rats i.v. 3 mg/kg
  time of second peak: 23 min
[2]; [4]
  time of first peak: 0.02 h
  time of second peak: 22.8 min
[3]
  elimination via metabolism (hydrolysis and oxidation): 99%
  unchanged DHA eliminated by direct excretion from kidneys: < 1 % of dose
Human plasma proteins
  fraction unbound at 5 h: 0.18 to 0.24
